Converted amounts (≈) assume the structure as drawn.
Legend:
A. baumannii ATCC 17978 = assay: microbe, parasite or virus in culture; assay type: cell-based; settings: Acinetobacter baumannii, ATCC17978, read-out: MIC, A. baumannii ATCC 17978
[1] = target: T1, PBP1a from Acinetobacter baumannii (ATCC 19606) (Acinetobacter baumannii, UniProt A0ABX6CK30); assay: Bocillin-FL fluorescence polarization competition binding, A. baumannii PBP1a; settings: fluorescence polarization competition binding assay using Bocillin-FL; read-out: A. baumannii PBP1a Potency
T1 sequence (A0ABX6CK30 1-851): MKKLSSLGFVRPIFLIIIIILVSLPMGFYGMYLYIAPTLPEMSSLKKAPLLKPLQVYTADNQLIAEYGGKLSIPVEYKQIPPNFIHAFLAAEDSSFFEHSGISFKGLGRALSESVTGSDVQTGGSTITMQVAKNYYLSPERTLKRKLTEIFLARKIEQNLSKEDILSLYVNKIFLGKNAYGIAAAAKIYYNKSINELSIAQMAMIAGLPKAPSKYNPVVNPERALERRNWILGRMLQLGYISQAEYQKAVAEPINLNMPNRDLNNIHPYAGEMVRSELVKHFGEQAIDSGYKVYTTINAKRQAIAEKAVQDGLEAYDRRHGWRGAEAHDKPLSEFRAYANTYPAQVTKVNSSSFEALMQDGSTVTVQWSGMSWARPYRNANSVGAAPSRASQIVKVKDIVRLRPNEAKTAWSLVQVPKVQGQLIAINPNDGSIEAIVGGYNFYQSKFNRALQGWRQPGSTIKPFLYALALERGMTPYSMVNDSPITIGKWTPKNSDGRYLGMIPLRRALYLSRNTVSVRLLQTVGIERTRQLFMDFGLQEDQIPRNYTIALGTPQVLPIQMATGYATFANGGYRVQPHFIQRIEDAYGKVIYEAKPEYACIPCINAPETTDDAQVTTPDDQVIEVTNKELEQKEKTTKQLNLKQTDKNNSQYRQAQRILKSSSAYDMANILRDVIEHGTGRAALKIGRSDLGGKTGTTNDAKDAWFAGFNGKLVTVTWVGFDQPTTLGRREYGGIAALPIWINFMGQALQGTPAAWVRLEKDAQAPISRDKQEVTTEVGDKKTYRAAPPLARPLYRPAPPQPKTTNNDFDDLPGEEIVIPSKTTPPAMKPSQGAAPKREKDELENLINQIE
How it was run: (§1)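 Purified PBPs pre-incubated with inhibitor (E. coli PBP3 1.5 μM, 30 min; P. aeruginosa PBP3 0.75 μM, A. baumannii PBP1a 1 μM and PBP3 0.2 μM, 15 min), then Bocillin-FL 0.1 μM (0.05 μM for PBP1a) added; FP read up to 60 min. EC50 = concentration halving bound Bocillin-FL.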

[2] = target: T2, PBP3 from Escherichia coli (K-12) (Escherichia coli, UniProt P0AD68); assay: Bocillin-FL fluorescence polarization competition binding, E. coli PBP3
T2 construct: made in house
T2 sequence (P0AD68 1-577): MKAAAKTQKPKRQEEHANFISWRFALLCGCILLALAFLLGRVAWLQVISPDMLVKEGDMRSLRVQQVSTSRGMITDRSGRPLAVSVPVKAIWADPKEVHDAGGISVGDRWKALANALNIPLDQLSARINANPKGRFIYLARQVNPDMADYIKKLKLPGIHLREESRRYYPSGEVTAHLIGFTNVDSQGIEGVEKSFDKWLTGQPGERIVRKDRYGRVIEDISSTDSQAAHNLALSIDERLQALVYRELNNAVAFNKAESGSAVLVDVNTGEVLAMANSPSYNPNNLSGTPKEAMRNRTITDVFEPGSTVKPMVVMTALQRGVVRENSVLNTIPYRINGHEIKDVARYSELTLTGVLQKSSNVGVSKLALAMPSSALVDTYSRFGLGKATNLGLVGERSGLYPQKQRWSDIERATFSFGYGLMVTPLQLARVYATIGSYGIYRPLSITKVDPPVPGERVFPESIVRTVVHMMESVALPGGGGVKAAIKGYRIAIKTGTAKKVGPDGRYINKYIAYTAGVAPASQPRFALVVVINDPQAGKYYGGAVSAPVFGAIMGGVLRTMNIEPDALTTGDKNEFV
How it was run: as §1

A. baumannii CDC-0033 = assay: microbe, parasite or virus in culture; assay type: cell-based; settings: Acinetobacter baumannii, CDC0033, read-out: MIC, A. baumannii CDC-0033
[3] = tested on: P. aeruginosa (ΔmexAB-oprM); assay: Broth microdilution MIC in iron-depleted CAMHB (IDM); assay type: cell-based; settings: Pseudomonas aeruginosa; iron-depleted CAMHB (IDM); […]; read-out: Minimum inhibitory concentration, P. aeruginosa ΔmexAB-oprM
N. gonorrhoeae WHO Z = assay: Liquid broth MIC in Fastidious broth; settings: Neisseria gonorrhoeae, read-out: Minimum Inhibitory Concentration, WHO Z
N. gonorrhoeae WHO K = assay: Liquid broth MIC in Fastidious broth; settings: Neisseria gonorrhoeae, read-out: Minimum Inhibitory Concentration, WHO K
A. baumannii ATCC 19606 = assay: microbe, parasite or virus in culture; assay type: cell-based; settings: Acinetobacter baumannii, ATCC19606, read-out: MIC, A. baumannii ATCC 19606

SMILES	MIC (A. baumannii ATCC 17978) [µg/mL]	IC50 [1] [µM]	EC50 [2] [µM]	MIC (A. baumannii CDC-0033) [µg/mL]	MIC [3] [µg/mL]	MIC (N. gonorrhoeae WHO Z) [µg/mL]	MIC (N. gonorrhoeae WHO K) [µg/mL]	MIC (A. baumannii ATCC 19606) [µg/mL]
O=C(NCCN1CCN(C(=O)NC(C(=O)N[C@H]2Cc3ccc(F)c(C(=O)O)c3OB2O)c2cc(F)c(O)c(O)c2Cl)C1=O)Nc1cccnc1 (stereo partly drawn) [Example 251, (3R)-3-(2-(2-chloro-5-fluoro-3,4-dihydroxyphenyl)-2-(2-oxo-3-(2-(3-(pyridin-3-yl)ureido)ethyl)imidazolidine-1-carboxamido)acetamido)-7-fluoro-2-hydroxy-3,4-dihydro-2H-benzo[e][1,2]oxaborinine-8-carboxylic acid]	< 1	> 250	< 10	2 to 4 (≈ 2.79 to 5.57 µM)	< 1	16 to 32 (≈ 22.3 to 44.6 µM)	> 64	< 1
O=C(NCCCN1CCN(C(=O)N[C@H](C(=O)N[C@H]2Cc3ccc(F)c(C(=O)O)c3OB2O)c2cc(F)c(O)c(O)c2Cl)C1=O)c1ccccc1 [Example 252, (R)-3-((S)-2-(3-(3-benzamidopropyl)-2-oxoimidazolidine-1-carboxamido)-2-(2-chloro-5-fluoro-3,4-dihydroxyphenyl)acetamido)-7-fluoro-2-hydroxy-3,4-dihydro-2H-benzo[e][1,2]oxaborinine-8-carboxylic acid]	8 to 16 (≈ 11.2 to 22.4 µM)	> 250	> 250	> 128	> 128	> 64	> 64	> 128
O=C(NCCCN1CCN(C(=O)N[C@@H](C(=O)N[C@H]2Cc3ccc(F)c(C(=O)O)c3OB2O)c2cc(F)c(O)c(O)c2Cl)C1=O)c1ccccc1 [Example 253, (R)-3-((R)-2-(3-(3-benzamidopropyl)-2-oxoimidazolidine-1-carboxamido)-2-(2-chloro-5-fluoro-3,4-dihydroxyphenyl)acetamido)-7-fluoro-2-hydroxy-3,4-dihydro-2H-benzo[e][1,2]oxaborinine-8-carboxylic acid]	< 1	> 250	< 10	< 1	< 1	16 to 32 (≈ 22.4 to 44.7 µM)	> 64	< 1
O=C(NCCCN1CCN(C(=O)N[C@H](C(=O)N[C@H]2Cc3ccc(F)c(C(=O)O)c3OB2O)c2cc(F)c(O)c(O)c2Cl)C1=O)c1cccc(O)c1 [Example 254, (R)-3-((S)-2-(2-chloro-5-fluoro-3,4-dihydroxyphenyl)-2-(3-(3-(3-hydroxybenzamido)propyl)-2-oxoimidazolidine-1-carboxamido)acetamido)-7-fluoro-2-hydroxy-3,4-dihydro-2H-benzo[e][1,2]oxaborinine-8-carboxylic acid]	2 to 4 (≈ 2.73 to 5.47 µM)	> 250	50 to 250	32 to 64 (≈ 43.7 to 87.4 µM)	> 128	> 64	> 64	8 to 16 (≈ 10.9 to 21.9 µM)
O=C(NCCCN1CCN(C(=O)N[C@@H](C(=O)N[C@H]2Cc3ccc(F)c(C(=O)O)c3OB2O)c2cc(F)c(O)c(O)c2Cl)C1=O)c1cccc(O)c1 [Example 255, (R)-3-((R)-2-(2-chloro-5-fluoro-3,4-dihydroxyphenyl)-2-(3-(3-(3-hydroxybenzamido)propyl)-2-oxoimidazolidine-1-carboxamido)acetamido)-7-fluoro-2-hydroxy-3,4-dihydro-2H-benzo[e][1,2]oxaborinine-8-carboxylic acid]	< 1	> 250	< 10	2 to 4 (≈ 2.73 to 5.47 µM)	< 1	16 to 32 (≈ 21.9 to 43.7 µM)	> 64	< 1
O=C(NCCCN1CCN(C(=O)NC(C(=O)N[C@H]2Cc3ccc(F)c(C(=O)O)c3OB2O)c2cc(F)c(O)c(O)c2Cl)C1=O)c1ccncc1 (stereo partly drawn) [Example 256, (3R)-3-(2-(2-chloro-5-fluoro-3,4-dihydroxyphenyl)-2-(3-(3-(isonicotinamido)propyl)-2-oxoimidazolidine-1-carboxamido)acetamido)-7-fluoro-2-hydroxy-3,4-dihydro-2H-benzo[e][1,2]oxaborinine-8-carboxylic acid]	< 1	> 250	10 to 50	2 to 4 (≈ 2.79 to 5.58 µM)	< 1	16 to 32 (≈ 22.3 to 44.6 µM)	> 64	< 1
O=C(NCCCN1CCN(C(=O)NC(C(=O)N[C@H]2Cc3ccc(F)c(C(=O)O)c3OB2O)c2cc(F)c(O)c(O)c2Cl)C1=O)c1nccs1 (stereo partly drawn) [Example 257, (3R)-3-(2-(2-chloro-5-fluoro-3,4-dihydroxyphenyl)-2-(2-oxo-3-(3-(thiazole-2-carboxamido)propyl)imidazolidine-1-carboxamido)acetamido)-7-fluoro-2-hydroxy-3,4-dihydro-2H-benzo[e][1,2]oxaborinine-8-carboxylic acid]	< 1	> 250	10 to 50	2 to 4 (≈ 2.77 to 5.53 µM)	< 1	16 to 32 (≈ 22.1 to 44.3 µM)	> 64	< 1
O=C(NCCCN1CCN(C(=O)N[C@@H](C(=O)N[C@H]2Cc3ccc(F)c(C(=O)O)c3OB2O)c2cc(F)c(O)c(O)c2Cl)C1=O)Nc1cccc(O)c1 [Example 258, (R)-3-((R)-2-(2-chloro-5-fluoro-3,4-dihydroxyphenyl)-2-(3-(3-(3-(3-hydroxyphenyl)ureido)propyl)-2-oxoimidazolidine-1-carboxamido)acetamido)-7-fluoro-2-hydroxy-3,4-dihydro-2H-benzo[e][1,2]oxaborinine-8-carboxylic acid]	< 1	> 250	< 10	< 1	< 1	4 to 8 (≈ 5.36 to 10.7 µM)	> 64	< 1
O=C(NCCCN1CCN(C(=O)NC(C(=O)N[C@H]2Cc3ccc(F)c(C(=O)O)c3OB2O)c2cc(F)c(O)c(O)c2Cl)C1=O)Nc1cccnc1 (stereo partly drawn) [Example 259, (3R)-3-(2-(2-chloro-5-fluoro-3,4-dihydroxyphenyl)-2-(2-oxo-3-(3-(3-(pyridin-3-yl)ureido)propyl)imidazolidine-1-carboxamido)acetamido)-7-fluoro-2-hydroxy-3,4-dihydro-2H-benzo[e][1,2]oxaborinine-8-carboxylic acid]	< 1	> 250	< 10	2 to 4 (≈ 2.73 to 5.47 µM)	< 1	16 to 32 (≈ 21.9 to 43.7 µM)	> 64	< 1
O=C(NCCS(=O)(=O)N1CCN(C(=O)NC(C(=O)N[C@H]2Cc3ccc(F)c(C(=O)O)c3OB2O)c2cc(F)c(O)c(O)c2Cl)C1=O)c1ccccc1 (stereo partly drawn) [Example 260, (3R)-3-(2-(3-((2-benzamidoethyl)sulfonyl)-2-oxoimidazolidine-1-carboxamido)-2-(2-chloro-5-fluoro-3,4-dihydroxyphenyl)acetamido)-7-fluoro-2-hydroxy-3,4-dihydro-2H-benzo[e][1,2]oxaborinine-8-carboxylic acid]	< 1	> 250	< 10	2 to 4 (≈ 2.61 to 5.22 µM)	< 1	16 to 32 (≈ 20.9 to 41.8 µM)	> 64	< 1

From US20240270762A1, “PENICILLIN-BINDING PROTEIN INHIBITORS” (priority 2021, published 2024)
